# Assay results reported in US7384915B2, “Chimeric insulin-gad proteins for treating patients with type 1 diabetes or at risk of developing type 1 diabetes” (Alexion Pharmaceuticals, Inc., priority 1997, dated 2008).
# Read-outs that look alike come from different tables or passages of the source.
# What was measured:
# [1] = tested on: non-diabetic male NOD recipients
# Procedure: CYTOXAN induction experiments: CYTOXAN (Cyclophosphamide) treatment can increase the incidence and accelerate the onset of diabetes in non-diabetic NOD mice. Randomly selected, non-diabetic male NOD mice, which were 100 to 110 days of age, were injected (ip) with cyclophosphamide (250 mg/kg) on day 0.
# All the mice were subjected to urine glucose measurement 2-3 times per week for a period of 21 days after cyclophosphamide injection. The onset of diabetes was recorded as the first point at which two consecutive days of positive urine glucose results were obtained. Blood glucose was also measured to confirm the urine glucose results. […] At day 21, these mice were sacrificed and examined histologically.
# [2] = tested on: non-diabetic male NOD mice; assay: CYTOXAN (cyclophosphamide) induced IDDM model, antigen treatment; type: in vivo, mouse; settings: FIG. 3
# From the text: Experimental Methods Non-obese diabetic (NOD) mice are a strain of mice that are prone to the development of diabetes, and represent an accepted model system for the study of diabetes mellitus. These mice, designated NOD/MrkTacfBR, were purchased from Taconic Farms (Germantown, N.Y.). NOD SCID mice, designated NOD/SCID, are available from the Jackson Laboratories, Bar Harbor, Me. The incidence of diabetes by 200 days of age in these mice is 80% in females and 50% in males. At 110 days of age, fewer than 15% of the male NOD mice became diabetic. […] In contrast, animals treated with either ICB or either of GAD 65 250-273 or 520-555 peptides, experienced reductions to less than 50% incidence of diabetes. The therapeutic effects of treatment with combinations of ICB and the two GAD peptides were then examined (FIG. 3).
# [3] = tested on: NOD/SCID mice injected with diabetogenic spleen cells; assay: NOD/SCID adoptive transfer model of IDDM; type: in vivo, mouse; settings: IV, 300 ugs of antigen twice daily every other day, day 3 to day 9 after spleen cell transfer; FIG. 5
# Procedure: Experiments in the NOD/SCID Adoptive Transfer Model: Spleen mononuclear cells were harvested from diabetic NOD mice of recent disease onset (diabetic not more than 3 weeks) and about 35×10^6 of these spleen cells in 0.2 ml of PBS were injected intravenously into 6-8 week old NOD/SCID mice. Onset of diabetes was monitored biweekly by urine glucose testing and confirmed by blood glucose testing on day 28 relative to the time of spleen cell transfer. At day 28, these mice were sacrificed and examined histologically.
# Diabetogenic splenic mononuclear cells were harvested from newly diabetic NOD mice (onset less than 3 weeks previous). To initiate the destruction of islet beta cells and the development of diabetes, 8-12 week old NOD/SCID mice were injected intravenously with 35×10^6 diabetogenic spleen cells. The incidence and onset of diabetes were monitored biweekly by urine glucose testing and confirmed by blood glucose testing at the end of the experiment. The average onset time of diabetes after disease induction was approximately 25 days. IV treatment with IG2, IG3, or islet beta cell antigens was initiated on day 3. Animals were treated with 300 ugs of antigen twice daily every other day for a period of six days (from day 3 to day 9, where the time of spleen cell transfer was day 0).
compound,measurement,setting,value
"O=P1(N(CCCl)CCCl)NCCCO1 (centres unmarked) [CYTOXAN, cyclophosphamide]",# Diabetic/Total,[1]; CYTOXAN 200 mg/kg,2/7
same,% diabetic,[1]; CYTOXAN 200 mg/kg,28.6%
same,Mean onset time,[1]; CYTOXAN 200 mg/kg,12
same,# Diabetic/Total,[1]; CYTOXAN 250 mg/kg,5/7
same,% diabetic,[1]; CYTOXAN 250 mg/kg,71.4%
same,Mean onset time,[1]; CYTOXAN 250 mg/kg,11
same,# Diabetic/Total,[1]; CYTOXAN 300 mg/kg,5/7
same,% diabetic,[1]; CYTOXAN 300 mg/kg,71.4%
same,Mean onset time,[1]; CYTOXAN 300 mg/kg,12.6
"GAD 65 520-555: human GAD 65 peptide 520-555, sequence corresponding to amino acid residues 139-173 of SEQ ID NO:2 (EERMSRLSKVAPVIKARMMEYGTTMVSYQPLGDKV; IG2 fusion protein for hGAD65 (human glutamate decarboxylase))",effect of addition to the ICB with GAD 65 250-273 combination on therapeutic efficacy,[2],appeared to inhibit the therapeutic efficacy
ICB: Oxidized bovine insulin Chain B purchased from Sigma (catalog no. I-6383),onset of disease in NOD/SCID recipients,[3],only a slight delay in disease onset
